Source: patent EP0981526B1, “NOVEL ANTIDIABETIC COMPOUNDS HAVING HYPOLIPIDAEMIC, ANTIHYPERTENSIVE PROPERTIES, PROCESS FOR THEIR PREPARATION AND PHARMACEUTICAL COMPOSITIONS CONTAINING THEM” (Dr. Reddy's Laboratories Ltd., priority 1997, dated 1997)

Test system: C57BL/KsJ-db/db mice
Test: Blood sugar and triglycerides lowering activity in db/db mice (in vivo)
Conditions: for Reduction in Blood Glucose Level (%) / Triglyceride Lowering (%): oral gavage daily, male db/db mice; for Reduction in Blood Glucose Level (%): plasma glucose; for Triglyceride Lowering (%): plasma triglyceride
From the text: Mutation in colonies of laboratory animals and different sensitivities to dietary regimens have made the development of animal models with non-insulin dependent diabetes associated with obesity and insulin resistance possible. Genetic models such as db/db and ob/ob (See Diabetes. (1982) 31(1): 1-6) in mice and fa/fa and zucker rats have been developed by the various laboratories for understanding the pathophysiology of disease and testing the efficacy of new antidiabetic compounds (Diabetes, (1983)32: 830-838; Annu. Rep. Sankyo Res. Lab. (1994). 46: 1-57). The homozygous animals, C57 BL/KsJ-db/db mice developed by Jackson Laboratory, US, are obese, hyperglycemic, hyperinsulinemic and insulin resistant (J. Clin. Invest., (1990) 85: 962-967), whereas heterozygous are lean and normoglycemic. In db/db model mouse progressively develops insulinopenia with age, a feature commonly observed in late stages of human type II diabetes when blood sugar levels are insufficiently controlled. The state of pancreas and its course vary according to the models. Since this model resembles that of type II diabetes mellitus, the compounds of the present invention were tested for blood sugar and triglycerides lowering activities.
Male C57BL/KsJ-db/db mice of 8 to 14 weeks age, having body weight range of 35 to 60 grams, procured from the Jackson Laboratory, USA, were used in the experiment. The mice were provided with standard feed (National Institute of Nutrition, Hyderabad, India) and acidified water, ad libitum. The animals having more than 300 mg/dl blood sugar were used for testing. The number of animals in each group was 4.
The random blood sugar ad triglyceride levels were measured by collecting blood (100 µl) through orbital sinus, using heparinized capillary in tubes containing EDTA which was centrifuged to obtain plasma. The plasma glucose and triglyceride levels were measured through spectrometrically, by glucose oxidase and glycerol-3-PO4 oxidase/peroxidase enzyme (Dr. Reddy's Lab. Diagnostic Division Kits, Hyderabad, India) methods respectively. On 6th day the blood samples were collected one hour after administration of test compounds/vehicle for assessing the biological activity.
Test compounds were suspended on 0.25 % carboxymethyl cellulose and administered to test group at a dose of 30 mg to 200 mg/kg through oral gavage daily for 6 to 9 days. The control group received vehicle (dose 10 ml/kg).
The blood sugar and triglycerides lowering activities of the test compound was calculated according to the formula: Blood sugar / triglycerides lowering activity (%) = 1 -(DT/DC)/(TC/ZC)X 100 [formula] • ZC = Zero day control group value • DC = Zero day treated group value • TC = Control group value on test day • DT = Treated group value on the test day

[1] = dose 200 mg/kg, treated for nine days

SMILES	Reduction in Blood Glucose Level (%) (dose 30 mg/kg)	Reduction in Blood Glucose Level (%) (dose 100 mg/kg)	Triglyceride Lowering (%) (dose 100 mg/kg)	Triglyceride Lowering (%) (dose 30 mg/kg)	further results
O=C1NC(=O)C(=Cc2ccc(OC3CCN(C(=O)OCc4ccccc4)CC3)cc2)S1 [Example 1, 5-[4-[1(Benzyloxycarbonyl)piperidin-4-yloxy]phenylmethylene]thiazolidine-2,4-dione]	47%	59%	29%		Reduction in Blood Glucose Level (%) [1]: 62%; Triglyceride Lowering (%) [1]: 70%
O=C1NC(=O)C(=Cc2ccc(OCC3CCN(C(=O)OCc4ccccc4)CC3)cc2)S1 [Example 3, 5-[4-[1-(Benzyloxycarbonyl)piperidin-4-ylmethoxy]phenylmethylene] thiazolidine-2,4-dione]		35%	56%		
O=C1NC(=O)C(=Cc2ccc(OC[C@@H]3CCCN3C(=O)OCc3ccccc3)cc2)S1 [Example 5, 5-[4-[1-(Benzyloxycarbonyl)-(2S)-pyrrolidin-2-ylmethoxy]phenylmethylene]thiazolidine-2,4-dione]	30%			5%	
O=C1NC(=O)C(=Cc2ccc(OC3CCN(C(=O)NCc4ccccc4)CC3)cc2)S1 [Example 10, 5-[4-[1-(Benzylaminocarbonyl)piperidin-4-yloxy]phenylmethylene]thiazolidine-2,4-dione]	37%			6%	
Cc1c(C)c2c(c(C)c1O)CCC(C)(COc1ccc(CC3SC(=O)NC3=O)cc1)O2 (stereo not drawn) [Troglitazone, reference compound]					reduction in random blood sugar level (100 mg/kg, daily dose, on 6th day, standard drug, db/db mice): 28%
